“Also recorded” adds a separate entry of the source.
Tests used:
[1] = system: Human transitional cell carcinoma cells (T24); experiment: Induced fluorescence in T24 cells in vitro; format: cell-based
Experimental: Human transitional cell carcinoma cells (T24) were used. ALA and ALA esters were dissolved in growth medium not containing serum. Fluorescence was observed using an excitation wavelength of 410 nm and detecting emission at 640 nm.

[2] = system: cervical intraepithelial lesions (CIN); experiment: Fluorescence detection of cervical intraepithelial lesions using HAL; format: in vivo, human
Experimental: This study involved 32 non-pregnant women with histologically proven squamous intraepithelial lesions (CIN).
5 to 20 ml of a cold-cream containing 0.5% (w/w) HAL hydrochloride was applied locally by means of a cervical cap. Random biopsies were performed at time points ranging from 5 min to 7 hours to assess the selective accumulation of HAL, as shown by fluorescence images. Image analysis on frozen tissue sections was carried out using a Zeiss Axiophot image analysis system.
A total of 112 biopsies were obtained from 32 patients. From these biopsies approximately 2000 fluorescence images were produced. […] Immediately after the biopsies were taken, the tissue was quickly frozen in liquid nitrogen and stored at −70° C. prior to use in order to stop any formation/degradation of cellular porphyrins. Tissue sections were prepared in the dark to avoid photobleaching. The frozen tissue blocks were mounted in Tissue Tek embedding compound (BDH) and a series of sections were prepared using a cryostat. Tissue sections were mounted on glass slides and images were recorded with a grey-scale camera. A band pass filter (BP395-440 nm) was used for excitation, while a second band-pass filter was used to record the specific Pp fluorescence.

[3] = system: bladder carcinoma in situ (CIS) and other bladder tumor lesions; experiment: HAL fluorescence detection of bladder lesions vs. white light cystoscopy; format: in vivo, human
Experimental: Photodynamic detection of bladder carcinoma in situ (CIS) (flat cancer lesions) after exposure to a hexyl aminolevulinate composition (8 mM HAL in PBS: 4.3 mM KH2PO4, 4.3 mM Na2HPO4, 120 mM NaCl, pH 6.0) for one hour was performed and compared to white light cystoscopy in patients with bladder cancer (FIG. 31).
About 50 ml of HAL solution was instilled into the bladder. The solution was allowed to remain in the bladder for one hour. After bladder evacuation, the bladder was inspected by using a cystoscope (Storz D-Light, Karl Storz, Tuttlingen, Germany) and mapped under white light followed by inspection and mapping of all fluorescing lesions using blue light (380-450 nm) (light of wavelength of about 405 nm could have been used as the PpIX absorption spectrum includes a maximum near 405 nm). After mapping of the lesions in white and blue light separately, biopsies and resected tissue were obtained of all lesions and suspicious areas. Finally, one biopsy from normal appearing urothelium (negative in white and blue light) was taken. Tissue material was prepared by the local pathlogist and examined by both local and a central pathologist to verify the diagnosis.
In another study, an HAL composition detected 98% of tumor lesions in patients (regardless of tumor type), whereas use of white light identified only 73% of the lesions. The HAL solution composition and instillation and cystoscopy procedure is described above. The cystoscopy findings were verified by examination (by a pathologist) of 5 random biopsies taken from each patient. There were a total of 143 verified tumors in 45 patients including carcinoma in situ (CIS) and Ta or T1 lesions. HAL cystoscopy was performed in 43 of the patients with a detection rate of 96% (43/45). White light cystoscopy was performed in 33 of the patients with a detection rate of 73% (33/45).

[4] = system: basal cell carcinoma (BCC) lesions and surrounding normal skin; experiment: PpIX fluorescence in human BCC and surrounding normal skin by optical-fiber based system; format: in vivo; conditions: 20% for 4 hours, topical
Experimental: The PpIX fluorescence in the BCC lesions and surrounding normal skin of human patients was measured in situ by optical-fiber based system after topical application of 20% free ALA and its derivatives for various time intervals.
The PpIX fluorescence ratios between BCC lesions and surrounding normal skin after topical application of ALA or its esters (20% for 4 hours), was examined using methods described in previous examples.

[5] = system: bladder cancer cells from patient urine; experiment: Detection of bladder cancer cells in urine; format: cell-based, human; conditions: 40 μg/ml or 0.15 mM, 4 hours at 37° C., blue light 390-440 nm
Experimental: Urine of a patient with bladder cancer was centrifuged (1500 rpm for 5 min) and resuspended into cell growth medium containing 10% fetal calf serum and HAL hydrochloride (40 μg/ml or 0.15 mM) for 4 hours at 37° C. in the dark. The cells fluoresced under blue light (390-440 nm) after being incubated with HAL HCl (FIG. 28). […] This was confirmed by cytology.

## CCCCCCOC(=O)CCC(=O)CN.Cl [HAL, n-hexyl 5-aminolevulinate hydrochloride]
[1]; same conditions
  maximum fluorescence relative to the maximum induced by aminolevulinic acid: nearly three times
[1]; serum-free medium, excitation 410 nm, emission 640 nm
  concentration inducing maximum fluorescence in cells in vitro: about 13 mM
[2]; 0.5% (w/w) HAL hydrochloride cold-cream, hydrochloride
  fluorescence of cervical lesions after topical application: excellent fluorescence; also recorded: high and homogenous fluorescence in the lesions
[2]; 0.5% cream applied to the cervix, patients, hydrochloride
  adverse reactions / tolerability: No local or systemic adverse reactions; also recorded: well tolerated
[2]; 0.5% cream, 5 minutes
  fluorescence after 5 minutes application: low
[2]; 0.5% cream, 30 minutes and longer
  fluorescence throughout the lesion at application times of 30 minutes and longer: high and homogenous fluorescence throughout the lesion
[2]; 0.5% cream, cervical biopsies of CIN lesions
  selectivity of fluorescence for precancerous lesions: excellent selectivity for precancerous lesions
[2]; 0.5% cream, more than three hours
  selectivity at application time more than three hours: the selectivity was reduced
[2]; HAL 0.5% cream, 1-2 hour
  selectivity after 1-2 hour application: excellent
[3]; 8 mM HAL in PBS, one hour instillation, 218 patients for analysis
  CIS lesion detection rate as verified by biopsies: 97%
[3]; 13 patients with CIS lesions only, 12/13
  carcinoma in situ lesions identified in patients with CIS lesions only: 92%
[3]; another study, 43/45
  detection rate of HAL cystoscopy (patients): 96%
[3]; another study, 143 verified tumors in 45 patients
  tumor lesions detected (regardless of tumor type): 98%
[4]
  PpIX fluorescence ratios between BCC lesions and surrounding normal skin (selectivity) compared with free ALA: more selectively induce PpIX in BCC lesions than free ALA
[5]
  fluorescence of urine cells under blue light: only cancer cells fluoresced

Source: patent US7530461B2, “Esters of 5-aminolevulinic acid as photosensitizing agents in photochemotherapy” (PhotoCure ASA, priority 1995, dated 2009)
